Square brackets hold non-standard residues; d marks the D form. Peptide text beside a SMILES is read from it. * marks the point of attachment. Leu(ol) = CC(C)C[C@H](N)CO; Boc = CC(C)(C)OC(=O)*

The target in the test is T1, Renin (Homo sapiens, UniProt P00797).
T1 sequence (P00797 whole entry): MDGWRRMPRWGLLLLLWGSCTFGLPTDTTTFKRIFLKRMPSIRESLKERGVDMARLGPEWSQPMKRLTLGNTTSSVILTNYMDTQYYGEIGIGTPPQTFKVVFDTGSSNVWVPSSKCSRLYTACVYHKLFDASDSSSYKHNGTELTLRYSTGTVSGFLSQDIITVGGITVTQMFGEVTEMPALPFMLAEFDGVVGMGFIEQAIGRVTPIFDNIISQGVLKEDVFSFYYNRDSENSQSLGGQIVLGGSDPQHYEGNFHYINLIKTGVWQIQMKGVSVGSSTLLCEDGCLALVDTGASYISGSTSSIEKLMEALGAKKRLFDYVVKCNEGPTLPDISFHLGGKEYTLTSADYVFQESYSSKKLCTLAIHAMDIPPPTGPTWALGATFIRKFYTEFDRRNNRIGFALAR
The experiment in a line: Compound was evaluated for inhibitory activity against renin. The note with it: read-out: I50.
On to `CC(C)C[C@H](CO)C(=O)N[C@H](Cc1c[nH]cn1)C(=O)N[C@H](Cc1ccccc1)C(=O)NCC(C)(C)C`, for which the IC50 was found to be 80 µM.

Turning to `CC(C)C[C@@H](CO)NC(=O)[C@H](Cc1c[nH]cn1)C(=O)N[C@H](Cc1ccccc1)C(=O)NCC(C)(C)C`, the IC50 is 1200 µM.

Consider `CC(C)C[C@@H](CO)NC(=O)[C@H](Cc1cnc[nH]1)NC(=O)[C@H](Cc1ccccc1)NC(=O)OC(C)(C)C` (Boc-Phe-His-[Leu(ol)]), for which the IC50 was found to be 16 µM.

On to `CC(C)C[C@@H](CO)C(=O)N[C@H](Cc1c[nH]cn1)C(=O)N[C@H](Cc1ccccc1)C(=O)NCC(C)(C)C`, for which the IC50 came out at 20 µM.

Source of the values: ChEMBL document CHEMBL1153261, “Retro-Inverso Tripeptide Renin Inhibitors” (Bioorg Med Chem Lett, 1992).
